Data published in ChEMBL document CHEMBL3046801, “Synthesis of 2-R1-2-(4-(2-fluoroethoxy)benzamido)acetate as potential PET imaging agents” (Med Chem Res, 2012).

How the values were obtained:
Heart [1] = experiment: Biodistribution in tumor bearing Mus musculus KM (mouse) heart at 120 min by microPET imaging analysis; type: ADME, organism-based; conditions: in vivo, 2 h
Heart [2] = experiment: Biodistribution in tumor bearing Mus musculus KM (mouse) heart at 5 min by microPET imaging analysis; type: ADME, organism-based; conditions: in vivo
Blood [3] = experiment: Biodistribution in tumor bearing Mus musculus KM (mouse) blood at 120 min by microPET imaging analysis; type: ADME, organism-based; conditions: in vivo, 2 h
Spleen [4] = experiment: Biodistribution in tumor bearing Mus musculus KM (mouse) spleen at 15 min by microPET imaging analysis; type: ADME, organism-based; conditions: in vivo, 0.25 h
Blood [5] = experiment: Biodistribution in tumor bearing Mus musculus KM (mouse) blood at 5 min by microPET imaging analysis; type: ADME, organism-based; conditions: in vivo
Liver [6] = experiment: Biodistribution in tumor bearing Mus musculus KM (mouse) liver at 120 min by microPET imaging analysis; type: ADME, organism-based; conditions: in vivo, 2 h
Tumour [7] = experiment: Biodistribution in Mus musculus KM (mouse) tumor at 60 min by microPET imaging analysis; type: ADME, organism-based, Neoplasm; conditions: in vivo, 1 h
Spleen [8] = experiment: Biodistribution in tumor bearing Mus musculus KM (mouse) spleen by microPET imaging analysis; type: ADME, organism-based; conditions: in vivo, TDE = time-dependent effect
Nucleic Acid [9] = experiment: Ratio of drug uptake in tumor to muscle in Mus musculus KM (mouse) at 60 min; type: ADME, nucleic-acid assay; conditions: in vivo, 1 h
Nucleic Acid [10] = experiment: Ratio of drug uptake in tumor to muscle in Mus musculus KM (mouse) at 15 min; type: ADME, nucleic-acid assay; conditions: in vivo, 0.25 h
Blood [11] = experiment: Biodistribution in tumor bearing Mus musculus KM (mouse) blood at 30 min by microPET imaging analysis; type: ADME, organism-based; conditions: in vivo, 0.5 h
Brain [12] = experiment: Biodistribution in tumor bearing Mus musculus KM (mouse) brain at 30 min by microPET imaging analysis; type: ADME, organism-based; conditions: in vivo, 0.5 h
Lung [13] = experiment: Biodistribution in tumor bearing Mus musculus KM (mouse) Lung at 15 min by microPET imaging analysis; type: ADME, organism-based; conditions: in vivo, 0.25 h
Tumour [14] = experiment: Biodistribution in Mus musculus KM (mouse) tumor at 30 min by microPET imaging analysis; type: ADME, organism-based, Neoplasm; conditions: in vivo, 0.5 h
Nucleic Acid [15] = experiment: Ratio of drug uptake in tumor to muscle in Mus musculus KM (mouse) at 120 min; type: ADME; conditions: in vivo, 2 h
Blood [16] = experiment: Biodistribution in tumor bearing Mus musculus KM (mouse) blood at 15 min by microPET imaging analysis; type: ADME, organism-based; conditions: in vivo, 0.25 h
[17] = Octanol-PBS partition coefficient of the compound at pH 7.4 by gamma counter; type: physicochemical; conditions: read-out: log KOW
Liver [18] = experiment: Biodistribution in tumor bearing Mus musculus KM (mouse) liver at 30 min by microPET imaging analysis; type: ADME, organism-based; conditions: in vivo, 0.5 h
Muscle tissue [19] = experiment: Biodistribution in tumor bearing Mus musculus KM (mouse) muscle at 60 min by microPET imaging analysis; type: ADME, organism-based; conditions: in vivo, 1 h
Brain [20] = experiment: Biodistribution in tumor bearing Mus musculus KM (mouse) brain at 5 min by microPET imaging analysis; type: ADME, organism-based; conditions: in vivo
Kidney [21] = experiment: Biodistribution in tumor bearing Mus musculus KM (mouse) kidney by microPET imaging analysis; type: ADME, organism-based; conditions: in vivo, TDE = time-dependent effect
Blood [22] = experiment: Biodistribution in tumor bearing Mus musculus KM (mouse) blood at 60 min by microPET imaging analysis; type: ADME, organism-based; conditions: in vivo, 1 h
Kidney [23] = experiment: Biodistribution in tumor bearing Mus musculus KM (mouse) kidney at 60 min by microPET imaging analysis; type: ADME, organism-based; conditions: in vivo, 1 h
Spleen [24] = experiment: Biodistribution in tumor bearing Mus musculus KM (mouse) spleen at 30 min by microPET imaging analysis; type: ADME, organism-based; conditions: in vivo, 0.5 h
Spleen [25] = experiment: Biodistribution in tumor bearing Mus musculus KM (mouse) spleen at 5 min by microPET imaging analysis; type: ADME, organism-based; conditions: in vivo
Heart [26] = experiment: Biodistribution in tumor bearing Mus musculus KM (mouse) heart by microPET imaging analysis; type: ADME, organism-based; conditions: in vivo, TDE = time-dependent effect
Heart [27] = experiment: Biodistribution in tumor bearing Mus musculus KM (mouse) heart at 15 min by microPET imaging analysis; type: ADME, organism-based; conditions: in vivo, 0.25 h
Muscle tissue [28] = experiment: Biodistribution in tumor bearing Mus musculus KM (mouse) muscle at 30 min by microPET imaging analysis; type: ADME, organism-based; conditions: in vivo, 0.5 h
Spleen [29] = experiment: Biodistribution in tumor bearing Mus musculus KM (mouse) spleen at 120 min by microPET imaging analysis; type: ADME, organism-based; conditions: in vivo, 2 h
Brain [30] = experiment: Biodistribution in tumor bearing Mus musculus KM (mouse) brain at 60 min by microPET imaging analysis; type: ADME, organism-based; conditions: in vivo, 1 h
Kidney [31] = experiment: Biodistribution in tumor bearing Mus musculus KM (mouse) kidney at 5 min by microPET imaging analysis; type: ADME, organism-based; conditions: in vivo
Muscle tissue [32] = experiment: Biodistribution in tumor bearing Mus musculus KM (mouse) muscle at 15 min by microPET imaging analysis; type: ADME, organism-based; conditions: in vivo, 0.25 h
Brain [33] = experiment: Biodistribution in tumor bearing Mus musculus KM (mouse) brain at 15 min by microPET imaging analysis; type: ADME, organism-based; conditions: in vivo, 0.25 h
Heart [34] = experiment: Biodistribution in tumor bearing Mus musculus KM (mouse) heart at 60 min by microPET imaging analysis; type: ADME, organism-based; conditions: in vivo, 1 h
Liver [35] = experiment: Biodistribution in tumor bearing Mus musculus KM (mouse) liver at 5 min by microPET imaging analysis; type: ADME, organism-based; conditions: in vivo
Muscle tissue [36] = experiment: Biodistribution in tumor bearing Mus musculus KM (mouse) muscle at 120 min by microPET imaging analysis; type: ADME, organism-based; conditions: in vivo, 2 h
Brain [37] = experiment: Biodistribution in tumor bearing Mus musculus KM (mouse) brain by microPET imaging analysis; type: ADME, organism-based; conditions: in vivo, TDE = time-dependent effect
Lung [38] = experiment: Biodistribution in tumor bearing Mus musculus KM (mouse) lung by microPET imaging analysis; type: ADME, organism-based; conditions: in vivo, TDE = time-dependent effect
Lung [39] = experiment: Biodistribution in tumor bearing Mus musculus KM (mouse) Lung at 120 min by microPET imaging analysis; type: ADME, organism-based; conditions: in vivo, 2 h
Nucleic Acid [40] = experiment: Ratio of drug uptake in tumor to muscle in Mus musculus KM (mouse) at 30 min; type: ADME, nucleic-acid assay; conditions: in vivo, 0.5 h
Liver [41] = experiment: Biodistribution in tumor bearing Mus musculus KM (mouse) liver at 15 min by microPET imaging analysis; type: ADME, organism-based; conditions: in vivo, 0.25 h
Tumour [42] = experiment: Biodistribution in Mus musculus KM (mouse) tumor at 5 min by microPET imaging analysis; type: ADME, organism-based, Neoplasm; conditions: in vivo
Liver [43] = experiment: Biodistribution in tumor bearing Mus musculus KM (mouse) liver at 60 min by microPET imaging analysis; type: ADME, organism-based; conditions: in vivo, 1 h
Lung [44] = experiment: Biodistribution in tumor bearing Mus musculus KM (mouse) Lung at 30 min by microPET imaging analysis; type: ADME, organism-based; conditions: in vivo, 0.5 h
Liver [45] = experiment: Biodistribution in tumor bearing Mus musculus KM (mouse) liver by microPET imaging analysis; type: ADME, organism-based; conditions: in vivo, TDE = time-dependent effect
Kidney [46] = experiment: Biodistribution in tumor bearing Mus musculus KM (mouse) kidney at 15 min by microPET imaging analysis; type: ADME, organism-based; conditions: in vivo, 0.25 h
Spleen [47] = experiment: Biodistribution in tumor bearing Mus musculus KM (mouse) spleen at 60 min by microPET imaging analysis; type: ADME, organism-based; conditions: in vivo, 1 h
Brain [48] = experiment: Biodistribution in tumor bearing Mus musculus KM (mouse) brain at 120 min by microPET imaging analysis; type: ADME, organism-based; conditions: in vivo, 2 h
Lung [49] = experiment: Biodistribution in tumor bearing Mus musculus KM (mouse) Lung at 5 min by microPET imaging analysis; type: ADME, organism-based; conditions: in vivo
Kidney [50] = experiment: Biodistribution in tumor bearing Mus musculus KM (mouse) kidney at 120 min by microPET imaging analysis; type: ADME, organism-based; conditions: in vivo, 2 h
Muscle tissue [51] = experiment: Biodistribution in tumor bearing Mus musculus KM (mouse) muscle at 5 min by microPET imaging analysis; type: ADME, organism-based; conditions: in vivo
Tumour [52] = experiment: Biodistribution in Mus musculus KM (mouse) tumor at 15 min by microPET imaging analysis; type: ADME, organism-based, Neoplasm; conditions: in vivo, 0.25 h
Muscle tissue [53] = experiment: Biodistribution in tumor bearing Mus musculus KM (mouse) muscle by microPET imaging analysis; type: ADME, organism-based; conditions: in vivo, TDE = time-dependent effect
Tumour [54] = experiment: Biodistribution in Mus musculus KM (mouse) tumor at 120 min by microPET imaging analysis; type: ADME, organism-based, Neoplasm; conditions: in vivo, 2 h
Tumour [55] = experiment: Biodistribution in tumor of Mus musculus KM (mouse) by microPET imaging analysis; type: ADME, organism-based, Neoplasm; conditions: in vivo, TDE = time-dependent effect
Heart [56] = experiment: Biodistribution in tumor bearing Mus musculus KM (mouse) heart at 30 min by microPET imaging analysis; type: ADME, organism-based; conditions: in vivo, 0.5 h
Blood [57] = experiment: Biodistribution in tumor bearing Mus musculus KM (mouse) blood by microPET imaging analysis; type: ADME, organism-based; conditions: in vivo, TDE = time-dependent effect
Kidney [58] = experiment: Biodistribution in tumor bearing Mus musculus KM (mouse) kidney at 30 min by microPET imaging analysis; type: ADME, organism-based; conditions: in vivo, 0.5 h
Lung [59] = experiment: Biodistribution in tumor bearing Mus musculus KM (mouse) Lung at 60 min by microPET imaging analysis; type: ADME, organism-based; conditions: in vivo, 1 h

- Drug uptake (Heart [1]): 0.25 % ID/g
- Drug uptake (Heart [2]): 2.24 % ID/g
- Drug uptake (Blood [3]): 0.3 % ID/g
- Drug uptake (Spleen [4]): 0.48 % ID/g
- Drug uptake (Blood [5]): 4.57 % ID/g
- Drug uptake (Liver [6]): 0.37 % ID/g
- Drug uptake (Tumour [7]): 0.29 % ID/g
- Drug uptake (Spleen [8]): tde
- Ratio (Nucleic Acid [9]): 1.93
- Ratio (Nucleic Acid [10]): 1.09
- Drug uptake (Blood [11]): 0.39 % ID/g
- Drug uptake (Brain [12]): 0.12 % ID/g
- Drug uptake (Lung [13]): 1.11 % ID/g
- Drug uptake (Tumour [14]): 0.47 % ID/g
- Ratio (Nucleic Acid [15]): 2.57
- Drug uptake (Blood [16]): 1.45 % ID/g
- logD [17]: -1.55
- Drug uptake (Liver [18]): 0.38 % ID/g
- Drug uptake (Muscle tissue [19]): 0.15 % ID/g
- Drug uptake (Brain [20]): 0.34 % ID/g
- Drug uptake (Kidney [21]): tde
- Drug uptake (Blood [22]): 0.18 % ID/g
- Drug uptake (Kidney [23]): 0.46 % ID/g
- Drug uptake (Spleen [24]): 0.22 % ID/g
- Drug uptake (Spleen [25]): 1.12 % ID/g
- Drug uptake (Heart [26]): tde
- Drug uptake (Heart [27]): 0.75 % ID/g
- Drug uptake (Muscle tissue [28]): 0.47 % ID/g
- Drug uptake (Spleen [29]): 0.2 % ID/g
- Drug uptake (Brain [30]): 0.06 % ID/g
- Drug uptake (Kidney [31]): 17.9 % ID/g
- Drug uptake (Muscle tissue [32]): 0.82 % ID/g
- Drug uptake (Brain [33]): 0.23 % ID/g
- Drug uptake (Heart [34]): 0.22 % ID/g
- Drug uptake (Liver [35]): 2.75 % ID/g
- Drug uptake (Muscle tissue [36]): 0.14 % ID/g
- Drug uptake (Brain [37]): tde
- Drug uptake (Lung [38]): tde
- Drug uptake (Lung [39]): 0.2 % ID/g
- Ratio (Nucleic Acid [40]): 0.99
- Drug uptake (Liver [41]): 1.08 % ID/g
- Drug uptake (Tumour [42]): 1.72 % ID/g
- Drug uptake (Liver [43]): 0.25 % ID/g
- Drug uptake (Lung [44]): 0.37 % ID/g
- Drug uptake (Liver [45]): tde
- Drug uptake (Kidney [46]): 5.15 % ID/g
- Drug uptake (Spleen [47]): 0.21 % ID/g
- Drug uptake (Brain [48]): 0.13 % ID/g
- Drug uptake (Lung [49]): 3.37 % ID/g
- Drug uptake (Kidney [50]): 0.32 % ID/g
- Drug uptake (Muscle tissue [51]): 1.35 % ID/g
- Drug uptake (Tumour [52]): 0.89 % ID/g
- Drug uptake (Muscle tissue [53]): tde
- Drug uptake (Tumour [54]): 0.36 % ID/g
- Drug uptake (Tumour [55]): tde
- Drug uptake (Heart [56]): 0.28 % ID/g
- Drug uptake (Blood [57]): tde
- Drug uptake (Kidney [58]): 1.17 % ID/g
- Drug uptake (Lung [59]): 0.18 % ID/g
Compound: O=C(O)CNC(=O)c1ccc(OCC[18F])cc1 [[18F]FEBA hydrolytic acid]
